Columns and labels:
[1] = Absorption vs. first pass metabolism: Cmax in ICR mice with and without 1-aminobenzotriazole (ABT) pre-treatment; format: in vivo, mouse; conditions: 10 mg/kg p.o., ABT 150 mg/kg 2 h before
Description: Absorption Vs. First Pass Metabolism
In this study, we further examined the absorption as compared to first pass metabolism of the compounds of the present invention. ICR mice (Hilltop) were pre-treated with 1-aminobenzotriazole (ABT), a nonselective inhibitor of cytochrome P450 enzymes, to inhibit Cyp450-mediated degradation of the compounds in liver.
ABT was administered at 150 mg/kg in 5 mL/kg of 0.04% ethanol in 0.5% methyl cellulose (w/v) by oral gavage, 2 hours prior to test compound administration. The compounds (i.e., Compounds 56, 268, 249, 61, 126, and 199) were administered by oral gavage at 10 mg/kg in 10 mL/kg of 20% PEG400/80% (0.5% (w/v) CMC containing 0.25% (v/v) Tween 80) (v/v), 2 hours after the ABT treatment. Blood was collected via orbital bleeding at predose, 0.25, 0.5, 1, 2, and 4 hours post-dose and the quantification of compound levels in plasma was accomplished by means of LC-MS/MS analysis as described in Example 81. Reference compound “Propranolol” that is known to be metabolized by Cyp450 was used as a positive control.
FIG. 15 depicts the Cmax (nM) of the compounds of the present invention with and without ABT pre-treatment.

[2] = 6-week DEXA body composition analysis in DIO mice; format: in vivo, mouse; conditions: 6 weeks BID dosing
From the text: In the next series of studies (Examples 93-99), Male DIO mice were received at 12 weeks of age (from Taconic), and were single-housed at the testing facility and acclimated for at least 2 weeks. The mice were provided a high fat diet [Research Diet D12492 (60% Fat kcal)] while in the testing facility. Before the study initiation, the animals were randomized into 5 experimental groups by body weight. The vehicle group contained only 0.5% carboxymethylcellulose (medium viscosity)+0.25% Tween-80. The second group contained 10 mg/kg of the DPP-IV inhibitor Sitagliptin while the third group contained 30 mg/kg Compound 268. The fourth group contained the combination of 10 mg/kg Sitagliptin and 30 mg/kg Compound 268. The fifth group was the positive control for weight loss, Rimonabant. All mice were dosed BID at approximately 6:00 am and again at approximately 4:00 pm. The positive control rimonabant was administered at a dose of 10 mg/kg in the afternoon and the morning dosing was vehicle (no compound).
6-Week Dexa Analysis after Multiple Weeks of Dosing Compounds
Compounds of the present invention were dosed for multiple weeks and the mice were analyzed to determine whether weight loss seen in Example 93 was due to a loss in fat or lean mass.
In this example, the protocol from Example 93 was utilized. The day of experiment, the mice were anesthetized using 2.5% avertin [tert-amyl alcohol (Aldrich #15,256-3) and 2,2,2-tribromoethanol (Aldrich # T4, 840-2)]. Their body composition was assessed using the PIXImus2 X-ray unit (GE Lunar Corporation, Madison, Wis.) connected to a computer equipped with LUNAR PIXImus2 software. The head region of each mouse was excluded from the analysis. The following measurements were automatically measured or calculated by the PIXImus2 software: bone mineral density (BMD), bone mineral content (BMC), bone area (B Area), tissue area (T Area), percent fat, and total tissue mass (TTM). Fat mass, the percentage of lean mass, and lean mass, were calculated manually as follows: % Lean=100−% Fat Lean Mass=TTM×(100−% Fat) Fat Mass=TTM×% Fat

Structure (SMILES)	Cmax with versus without ABT pre-treatment [1]	fat mass versus lean mass (DEXA) [2]	loss in weight / total tissue mass (DEXA) [2]
CC(C)NCC(O)COc1cccc2ccccc12 (stereo not drawn) [propranolol, Propranolol]	significantly higher in ABT pre-treated mice		
N[C@@H](CC(=O)N1CCn2c(nnc2C(F)(F)F)C1)Cc1cc(F)c(F)cc1F [sitagliptin, Sitagliptin, reference compound]		due to a loss in the Fat Mass	about the same loss in weight

— patent publication US10654834B2 (Venenum Biodesign, LLC, priority 2016, dated 2020)
